Each structure is given as a SMILES string.

In the assay the target is T1, Recombinant human renin (Homo sapiens, UniProt P00797).
T1 sequence (P00797 67-406): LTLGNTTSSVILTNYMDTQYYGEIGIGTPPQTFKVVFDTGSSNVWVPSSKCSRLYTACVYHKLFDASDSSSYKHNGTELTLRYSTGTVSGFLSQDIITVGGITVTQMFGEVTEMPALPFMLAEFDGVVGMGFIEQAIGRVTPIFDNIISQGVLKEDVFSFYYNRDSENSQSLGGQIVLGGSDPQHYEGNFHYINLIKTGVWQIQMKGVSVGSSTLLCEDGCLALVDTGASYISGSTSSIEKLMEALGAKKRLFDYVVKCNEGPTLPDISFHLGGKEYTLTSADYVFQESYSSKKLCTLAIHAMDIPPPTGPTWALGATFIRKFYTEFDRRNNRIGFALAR
Nature of the assay: Inhibitory activity against human renin (fluorogenic peptide substrate). Format: biochemical. Particulars: 37° C. for 1 hour, read-out: IC50. Here is the method:
Inhibitory Activity Against Human Renin
A substrate of synthetic peptide (Nma-KHPFH LVIHK(Dnp)-NH2) and test compound were mixed, and fluorescence intensity was assayed using a fluorophotometer before starting an enzymatic reaction (exciting wavelength: 340 nm, measuring wavelength: 460 nm). Recombinant human renin was added and the mixture was incubated at 37° C. for 1 hour, and the fluorescence intensity was measured after the reaction using a fluorophotometer (exciting wavelength: 340 nm, measuring wavelength: 460 nm).
Take `COC[C@@H]1CNC[C@H](C(=O)N(C2CC2)[C@H](C)c2nn(CCCNC(=O)OC)c3nc(C)ccc23)O1` [Example 1, methyl (3-{3-[(1R)-1-(cyclopropyl{[(2R,6S)-6-(methoxymethyl)morpholin-2-yl]carbonyl}amino)ethyl]-6-methyl-1H-pyrazolo[3,4-b]pyridin-1-yl}propyl)carbamate]: the IC50 came out at 0.3 nM.
For `COC[C@@H]1CNC[C@H](C(=O)N(C2CC2)[C@H](C)c2cc(CCCNC(=O)OC)nc(OC)c2)O1` [Example 2, methyl (3-{4-[(1R)-1-(cyclopropyl{[(2R,6S)-6-(methoxymethyl)morpholin-2-yl]carbonyl}amino)ethyl]-6-methoxypyridin-2-yl}propyl)carbamate] the value was 0.3 nM; for `COC(=O)NCCCc1cc([C@@H](C)N(C(=O)[C@H]2CNC[C@@H](C(=O)OC)O2)C2CC2)sc1-c1ccccc1` [Example 3, methyl (2S,6R)-6-{cyclopropyl[(1R)-1-(4-{3-[(methoxycarbonyl)amino]propyl}-5-phenylthiophen-2-yl)ethyl]carbamoyl}morpholine-2-carboxylate], 0.6 nM; for `COC(=O)NCCCn1cc([C@@H](C)N(C(=O)[C@H]2CNCCO2)C2CC2)nc1OC(C)C` [Example 5, methyl (3-{4-[(1R)-1-{cyclopropyl[(2R)-morpholin-2-ylcarbonyl]amino}ethyl]-2-(propan-2-yloxy)-1H-imidazol-1-yl}propyl)carbamate], 0.7 nM.
For `COC(=O)NCCCn1cc([C@@H](C)N(C(=O)[C@H]2CNCCO2)C2CC2)nc1C1CCCCC1` [Example 6, methyl (3-{2-cyclohexyl-4-[(1R)-1-{cyclopropyl[(2R)-morpholin-2-ylcarbonyl]amino}ethyl]-1H-imidazol-1-yl}propyl)carbamate] the value was 0.3 nM; for `CC(=O)NCCn1nc(C)c2ccc([C@@H](C)N(C(=O)[C@H]3CNCCO3)C3CC3)cc21` [Example 8], 4.4 nM.
As for `COC(=O)NCCn1nc(C)c2ccc([C@@H](C)N(C(=O)[C@H]3CNCCO3)C3CC3)cc21` [Example 9], the figure is 7.3 nM; as for `COCCCc1nn(C)c2ccc([C@@H](C)N(C(=O)[C@H]3CNCCO3)C3CC3)cc12` [Example 15], 2.6 nM; as for `COCCCOc1cc([C@@H](C)N(C(=O)[C@H]2CNCCO2)C2CC2)cc2c1OCCC2` [Example 19], 2.4 nM.
Take `COCCCCn1cc([C@@H](C)N(C(=O)[C@H]2CNCCO2)C2CC2)c2ncc(C)cc21` [Example 20]: the IC50 stood at 0.5 nM.
As for `COCCCn1ncc2c(F)cc([C@@H](C)N(C(=O)[C@H]3CNCCO3)C3CC3)cc21` [Example 23], the figure is 2.4 nM.
Turning to `COCCCCc1cc(C(C)N(C(=O)[C@H]2CNCCO2)C2CC2)cnc1OC` (some centres unmarked) [Example 25], the IC50 was found to be 6.3 nM.
With `COCCCc1nn(C)c2ccc([C@@H](C)N(C(=O)[C@H]3CNCCO3)C3CC3)cc12` [Example 26], the IC50 amounted to 3.4 nM.
As for `COc1ccc([C@@H](C)N(C(=O)[C@H]2CNCCO2)C2CC2)cc1CCCNC(C)=O` [Example 27], the figure is 8.3 nM.
For `CNC(=O)NCCCn1nc([C@@H](C)N(C(=O)[C@H]2CNCCO2)C2CC2)c2ccc(C)cc21` [Example 28] the value was 7.1 nM; for `COC(=O)NCCCn1nc([C@@H](C)N(C(=O)[C@H]2CNCCO2)C2CC2)c2ccc(C)cc21` [Example 29], 0.6 nM.
For `COCCCOc1nc([C@@H](C)N(C(=O)[C@H]2CNCCO2)C2CC2)cc2ccccc12` [Example 32] the value was 3.3 nM.
Consider `COCCCc1cn(C)c2cnc([C@@H](C)N(C(=O)[C@H]3CNCCO3)C3CC3)cc12` [Example 33], for which the IC50 is 5.3 nM.
On to `CCc1cnc2c([C@@H](C)N(C(=O)[C@H]3CNCCO3)C3CC3)cn(CCCCOC)c2c1` [Example 35], for which the IC50 came to 0.4 nM.
As for `COCCCCn1cc([C@@H](C)N(C(=O)[C@H]2CNCCO2)C2CC2)c2ncc(C3CC3)cc21` [Example 36], the figure is 0.5 nM; as for `COCCCc1cn(C)c2ccc([C@@H](C)N(C(=O)[C@H]3CNCCO3)C3CC3)nc12` [Example 39], 2 nM.
For `COCCCCn1cc([C@@H](C)N(C(=O)[C@H]2CNCCO2)C2CC2)c2ncc(OC)cc21` [Example 40] the value was 0.7 nM; for `COC(=O)NCCCn1nc([C@@H](C)N(C(=O)[C@H]2CNCCO2)C2CC2)c2ccc(OC)cc21` [Example 41], 0.7 nM.
Take `COC(=O)NCCCn1cc([C@@H](C)N(C(=O)[C@H]2CNCCO2)C2CC2)c2nccc(C)c21` [Example 42]: the IC50 came to 0.5 nM.
As for `COC(=O)NCCCn1cc([C@@H](C)N(C(=O)[C@H]2CNCCO2)C2CC2)c2ncccc21` [Example 43], the figure is 0.6 nM.
As for `COCCCn1nc(C)c2ccc([C@@H](C)N(C(=O)[C@H]3CNCCO3)C3CC3)nc21` [Example 44], the figure is 3 nM; as for `COCCCN1C(=O)C(C)(C)c2ccc([C@@H](C)N(C(=O)[C@H]3CNCCO3)C3CC3)cc21` [Example 45], 3.4 nM; as for `COCCCN1CC(C)(C)c2ccc([C@@H](C)N(C(=O)[C@H]3CNCCO3)C3CC3)cc21` [Example 46], 1.5 nM.
As for `COCCCc1cn(C)c2ncc([C@@H](C)N(C(=O)[C@H]3CNCCO3)C3CC3)cc12` [Example 47], the figure is 4.8 nM.
As for `COCCCc1cn(C)c2ccc([C@@H](C)N(C(=O)[C@H]3CNCCO3)C3CC3)cc12` [Example 48], the IC50 was found to be 1.5 nM.
For the molecule `COC(=O)NCCCn1cc([C@H](C)N(C(=O)[C@H]2CNCCO2)C2CC2)c2ccc(C)nc21` [Example 50], the IC50 was determined as 1 nM.
For the molecule `COCCCCn1cc([C@H](C)N(C(=O)[C@H]2CNCCO2)C2CC2)c2nccc(OC)c21` [Example 51], the IC50 is 8.8 nM.
For `COCCCCn1cc([C@@H](C)N(C(=O)[C@H]2CNCCO2)C2CC2)c2nccc(OC)c21` [Example 52] the value was 1.8 nM; for `COCCCCn1cc([C@@H](C)N(C(=O)[C@H]2CNCCO2)C2CC2)c2nc(C)ccc21` [Example 56], 4.2 nM.
As to `CCOC(=O)NCCCn1nc([C@@H](C)N(C(=O)[C@H]2CNCCO2)C2CC2)c2ccc(C)nc21` [Example 58], the IC50 turned out to be 1.6 nM.
`COC(=O)NCCCn1nc([C@@H](C)N(C(=O)[C@H]2CNCCO2)C2CC2)c2ccc(C3CC3)cc21` [Example 59]: the IC50 came to 0.9 nM.
As for `COC(=O)NCCCc1cccc([C@@H](C)N(C(=O)[C@H]2CNCCO2)C2CC2)c1` [Example 61], the figure is 4 nM.
For `COC(=O)NCCCn1nc([C@@H](C)N(C(=O)[C@H]2CNCCO2)C2CC2)c2cccc(C)c21` [Example 62] the value was 0.6 nM; for `COC(=O)NCCCn1nc([C@@H](C)N(C(=O)[C@H]2CNCCO2)C2CC2)c2ccc(CO)cc21` [Example 63], 1.3 nM.
With `COc1ccc([C@@H](C)N(C(=O)[C@H]2CNCCO2)C2CC2)cc1CCCNC(=O)C(F)(F)F` [Example 67], the IC50 came out at 8.9 nM.
As for `CCC(=O)NCCCc1cc([C@@H](C)N(C(=O)[C@H]2CNCCO2)C2CC2)ccc1OC` [Example 68], the figure is 4.5 nM.
For `COC(=O)NCCCn1nc([C@@H](C)N(C(=O)[C@H]2CNCCO2)C2CC2)c2ncc(C)cc21` [Example 70] the value was 1 nM; for `COC(=O)NCCCn1nc([C@@H](C)N(C(=O)[C@H]2CNCCO2)C2CC2)c2ccc(C(F)(F)F)nc21` [Example 72], 0.7 nM; for `COCCCn1cc(C(C)C)c2cnc([C@@H](C)N(C(=O)[C@H]3CNCCO3)C3CC3)nc21` [Example 73], 1.4 nM.
With `COC(=O)NCCCc1nc([C@@H](C)N(C(=O)[C@H]2CNCCO2)C2CC2)ccc1OC` [Example 74], the IC50 amounted to 4.6 nM.
As for `COC(=O)NCCCn1cc([C@@H](C)N(C(=O)[C@H]2CNCCO2)C2CC2)c2cc(F)cnc21` [Example 75], the figure is 0.3 nM; as for `COC(=O)NCCCn1nc([C@@H](C)N(C(=O)[C@H]2CNCCO2)C2CC2)c2cccc(F)c21` [Example 76], 0.6 nM.
For `COCCCCc1cc([C@@H](C)N(C(=O)[C@H]2CNCCO2)C2CC2)cc(OC)n1` [Example 78] the value was 0.9 nM.
As for `CCc1ccnc2c([C@@H](C)N(C(=O)[C@H]3CNCCO3)C3CC3)cn(CCCCOC)c12` [Example 79], the figure is 0.9 nM; as for `COCCCCn1cc([C@@H](C)N(C(=O)[C@H]2CNCCO2)C2CC2)c2nccnc21` [Example 80], 5.7 nM.
With `COCc1cccc2c([C@@H](C)N(C(=O)[C@H]3CNCCO3)C3CC3)nn(CCCNC(=O)OC)c12` [Example 81], the IC50 was determined as 0.4 nM.
Consider `COC(=O)NCCCn1nc([C@@H](C)N(C(=O)[C@H]2CNCCO2)C2CC2)c2ccc(C3CC3)nc21` [Example 82], for which the half-maximal inhibitory concentration (IC50) turned out to be 0.5 nM.
Regarding `COCCCn1cc(CCCNC(=O)OC)c2cnc([C@@H](C)N(C(=O)[C@H]3CNCCO3)C3CC3)cc21` [Example 83], the IC50 was 2.1 nM.
For `COC(=O)NCCCn1cc([C@@H](C)N(C(=O)[C@H]2CNCCO2)C2CC2)c2nccnc21` [Example 84] the value was 1.7 nM.
Consider `COC(=O)NCCCc1cc(OC)cc([C@@H](C)N(C(=O)[C@H]2CNCCO2)C2CC2)c1` [Example 85], for which the IC50 came to 1 nM.
For `COCCCCn1cc([C@@H](C)N(C(=O)[C@H]2CNCCO2)C2CC2)c2nccc(CCOC)c21` [Example 86] the value was 1.1 nM.
